According to PubChem BioAssay (NCI):
Where “and” joins values, the source holds several entries; their conditions need not be identical. Equal values may be shown once.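 Values below derive from 48-hour exposures of cells grown in 96-well plates, with endpoints linearly interpolated between the two concentrations bracketing the appropriate inhibition level. The concentration for 50% growth inhibition is given as GI50. TGI: concentration producing complete growth inhibition.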

System: MDA-MB-468 breast
Experiment: growth of human tumour cells (NCI), 48 h

Structure (SMILES)	GI50	TGI
O=C(/C=C/C=C/c1c(C2CC2)nc2ccccc2c1-c1ccc(F)cc1)c1cccs1	2.75 µM	> 100 µM
CS(=O)(=O)Nc1cccc(-c2cc(-c3ccccc3Cl)c(C#N)c(N)n2)c1	1.19 µM	7.75 µM
COC(=O)Nc1nc2ccc(C(=O)c3ccc(N(C)C4COC4)cc3)cc2[nH]1	0.224 µM	> 100 µM
Cc1cc(O)c(C2=NN(c3ccc(S(N)(=O)=O)cc3)C(c3ccc(N(C)C)cc3)C2)c(C)c1Cl (configuration not stated)	17.1 µM	33.8 µM
C[C@@H]1Cc2c([nH]c3ccccc23)[C@@H](c2c(F)cc(NC3CN(CCCF)C3)cc2F)N1CC(F)(F)CO	1.95 µM	4.86 µM
CN1C(=O)[C@@H](NC(=O)[C@H](CCC(F)(F)F)[C@H](CCC(F)(F)F)C(N)=O)N=C(c2ccccc2)c2ccccc21	21.2 µM	> 100 µM
Cc1cc2cn3c4ccc(O)cc4[nH]c(=O)c3c2cc1C	0.178 µM	0.772 µM
CS(=O)(=O)CCNCc1ccc(-c2ccc3ncnc(Nc4ccc(OCc5cccc(F)c5)c(C(F)(F)F)c4)c3c2)o1	1.42 µM	6.09 µM
CCCc1cc2cc(-n3nc(CC)c4c3CC(C)(C)CC4=O)cc(NC3CCC(O)CC3)c2c(=O)[nH]1 (configuration not stated)	0.212 µM	> 100 µM
CN(C)C/C=C/C(=O)Nc1cc2c(Nc3ccc(F)c(Cl)c3F)ncnc2cc1OCCOC(F)F	< 0.01 µM	
Nc1ccccc1NC(=O)c1ccc(CCCC(=O)Nc2ccc(C3CC3N)cc2)cc1 (configuration not stated)	1.62 µM	4.53 µM
COc1cc(Nc2ncc(F)c(Nc3ccc4c(n3)NC(=O)C(C)(C)O4)n2)cc(OC)c1OC	8.5 µM and 4.91 µM	> 100 µM
COc1cc(OC)c(/C=C/S(=O)(=O)Cc2ccc(OC)c(NC(=O)CCC(=O)NO)c2)c(OC)c1	0.0549 µM	> 100 µM
CCn1cc(-c2ccnc3[nH]ccc23)c(-c2cccc(NC(=O)Nc3ccc(OCc4ccccc4)cc3)c2)n1	18.2 µM	> 25 µM
Cc1nccc2c3ccc(OCc4cn(-c5ccc(Cl)cc5)nn4)cc3n(CCCc3ccccc3)c12	6.07 µM	19.1 µM
CC(C)CC(=O)Nc1n[nH]c2c1CN(C(=O)C1CCN(C)CC1)C2(C)C	1.13 µM	5.18 µM
Oc1cccc2ccc(-c3nnc(SCc4ccc(O)c5ncccc45)n3-c3ccccc3)nc12	0.813 µM	9.52 µM
CCN(CC)c1ccc2c(c1)Oc1nc(N)c(C#N)c(N)c1C2Sc1ccc(OC)cc1 (configuration not stated)	1.85 µM	3.51 µM
Fc1ccc(-c2ncn(C3CCNCC3)c2-c2ccnc(Oc3ccc(F)c(F)c3)n2)cc1	2.34 µM	5.86 µM
Cc1cc(Nc2c3ccccc3nc3ccccc23)ccc1NS(C)(=O)=O	2.29 µM	8.81 µM
O=C(NCCCNc1cc(-c2cn(-c3ccccc3)nc2-c2cccc(O)c2)ccn1)Nc1ccc(F)cc1	1.18 µM	4.66 µM
CN(C)c1ncc(-c2ccc(C(F)(F)F)cc2)c(NC2CCCCCC2)n1	14.3 µM	37.1 µM
O=[N+]([O-])c1ccccc1NC1c2ccccc2Oc2ccccc21	2.21 µM	5.4 µM
CCCCCCCCCc1cc[n+](CC(=O)c2ccc([N+](=O)[O-])cc2)cc1	0.446 µM	1.75 µM
